This is an account of results in article PMC8518915, “Evaluation of 4‐(4‐Fluorobenzyl)piperazin‐1‐yl]‐Based Compounds as Competitive Tyrosinase Inhibitors Endowed with Antimelanogenic Effects” (Chemmedchem, 2021).

By IC50 is commonly meant the point on the concentration scale where inhibition reaches its midpoint. Usually melting point stands for the temperature, or range, at which the solid turns liquid. In general, viability refers to a per cent measure of how many cells are alive, often set against a control.

In one data set the test system is AbTYR. Conditions: cited from earlier work; for IC50: efficacy against AbTYR; for mode of inhibition: prototypical AbTYR inhibitor.
Data set [1] deals with T1, TYR from Agaricus bisporus (AbTYR) (Agaricus bisporus, UniProt C7FF04).
T1 construct: purchased Sigma Chemical Co. (St. Louis, MO, USA)
As to conditions: AbTYR kinetic studies; cited from earlier work.

For a further data set, the system named is B16F10 cells. As to the kind of experiment: MTT assay for cell viability. It counts as cell-based, Murine. As to conditions: B16F10 melanoma cells, 48 h, at the concentration inhibiting tyrosinase activity. How it is done:
(§1) MTT assay was used to evaluate the biosafety effectiveness of 23, 25 and 26. Cells were treated with different concentration of each compound (0–100 μM), for 48 h, to determine the potential cytotoxic effect on B16F10 cells. […] To achieve a deeper characterization of most promising and potent inhibitor 26, we further examined its inhibitory effect on the tyrosinase activity in the cellular model. DOPA staining assay was performed using lysates of B16F10 cells untreated or treated with hormone with or without the tested compound 26. […] This was evident with the appearance of a darker band compared to that of untreated control (Figure 7). […] As result, the inhibitory effects of the compound 26 was also confirmed in the cellular model.
(§2) The viability of B16F10 cells was detected by the colorimetric 3‐(4,5‐dimethylthiazol‐2‐yl)‐2,5‐diphenyltetrazolium bromide (MTT) assay. A density of 5x10^3 cells/well, in the absence or presence of compounds (ranging from 1 μM to 100 μM), were seeded in 96‐well plates. The cells were incubated for 48 h at the temperature of 37 °C. MTT solution (0.5 mg/mL) was added at the end of incubation time. The medium was removed after 3 h of incubation at 37 °C. Then, DMSO was added to the precipitates and the absorbance was determined at 560 nm using a microplate reader (Multiskan FC – Thermo Scientific). The cell viability was expressed as the percentage of the amount of living cells in treated samples relative to untreated controls (100 % viability). The mean value and standard deviation (SD) were calculated from triplicate experiments.
(Tetrazolium assays rely on reduction of a dye to a coloured formazan, in cell work by metabolically active cells.)

Data set [2] in a line: MTT assay for cell viability. It counts as cell-based, Murine. As to conditions: mouse, B16F10 melanoma cells, B16F10 cells, 100 μM (highest concentration). How it is done: as §1, §2
Data set [3] concerns the target T1, TYR from Agaricus bisporus (AbTYR). Description: Kinetic analysis of the tyrosinase inhibition (Lineweaver‐Burk plots). The format is biochemical. As to conditions: L‐DOPA 0.6–5 mM. How it is done: Compounds 23, 25 and 26 were selected for kinetic studies to obtain more information about the mode of action against TYR; thereby their inhibitory effects on diphenolase activity were measured using increasing concentration of L‐DOPA. (0.6–5 mM). The reaction mixture consisted of four different concentrations of L‐DOPA (0.6–5 mM), the substrate, and AbTYR in […] (0.05 M, pH 6.8).
Compounds 23 and 25 (0.2, 0.4, and 0.8 μM), 26 (0.09, 0.18, and 0.36 μM) were added to the reaction mixture. The Michaelis‐Menten constant (Km) and maximal velocity (Vmax) of tyrosinase were determined by Lineweaver‐Burk plots.
A series of experiments were performed to determine the mode of inhibition of compounds 23, 25, 26 on tyrosinase. The reaction mixture consisted of four different concentrations of the substrate L‐DOPA (0.6–5 mM), and mushroom tyrosinase in phosphate buffer (0.05 M, pH 6.8). In addition, three different concentrations of compounds 23, 25, 26 (0.2–0.4–0.8 μM) were used for the analysis. Preincubation and measurement time were the same as discussed in mushroom tyrosinase inhibition assay. The Michaelis‐Menten constant (Km) and maximal velocity (Vmax) of tyrosinase were determined by Lineweaver‐Burk plots.

In data set [4] the test system is tyrosinase activity in B16F10 cells. Description: Tyrosinase zymography (L‐DOPA staining) of cell lysates. It counts as cell-based, Murine. How it is done: as §1
The tyrosinase activity was performed by DOPA‐staining assay as previously reported but with slight modifications.[29] A day after seeding the B16F10 cells (6X104 cells/mL) the culture medium was changed by the same medium supplemented with either α‐MSH alone or α‐MSH plus compound (0–100 μM)) or kojic acid (100 μM). After incubation for 48 h, cells were washed and lysed using phosphate buffer (50 mM, pH 6.8) containing Triton X‐100 (1 %) and phenylmethyl‐sulfonyl fluoride (0.1 mM). Cellular lysates were centrifugated at 12000 g for 20 min at 4 °C. Bradford method was used to determine the protein content using BSA as standard. […]

The structures appear in SMILES notation. “Also recorded” adds a separate entry of the source. Read-outs that look alike come from different tables or passages of the source. Bounds are passed on as bounds.

T1 sequence (C7FF04 1-392 limits assumed): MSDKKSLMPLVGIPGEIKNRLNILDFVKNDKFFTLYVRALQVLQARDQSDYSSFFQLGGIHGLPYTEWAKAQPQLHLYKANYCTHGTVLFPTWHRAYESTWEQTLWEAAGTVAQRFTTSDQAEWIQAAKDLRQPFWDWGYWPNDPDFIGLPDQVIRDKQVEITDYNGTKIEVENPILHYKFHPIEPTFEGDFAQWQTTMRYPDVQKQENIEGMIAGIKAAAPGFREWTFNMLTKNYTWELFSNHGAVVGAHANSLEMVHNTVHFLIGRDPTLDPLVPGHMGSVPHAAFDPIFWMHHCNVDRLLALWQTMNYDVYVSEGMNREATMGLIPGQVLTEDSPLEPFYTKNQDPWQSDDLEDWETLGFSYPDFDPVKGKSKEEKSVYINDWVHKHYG

As to `CCOc1cccc(C(C)=NNC(N)=S)c1` [Compound 1, 2‐(1‐(3‐ethoxyphenyl)ethylidene)hydrazine‐1carbothioamide], in the data set on AbTYR, the IC50 is 850 nM and the mode of inhibition entry was “competitive”.

`Oc1ccc(C=Nc2nnc(S)s2)c(O)c1` [Compound 2, 4‐(((5‐mercapto‐1,3,4‐thiadiazol‐2‐yl)imino)methyl)benzene‐1,3‐diol]: in the data set with AbTYR, the IC50 is 250 nM and the mode of inhibition entry is listed as “uncompetitive”.

Take `O=C(CN1CCC(Cc2ccccc2)CC1)N1CCN(c2ccc(O)cc2)CC1` [Compound 3, 2‐(4‐benzyl‐1‐piperidyl)‐1‐[4‐(4‐hydroxyphenyl)piperazin‐1‐yl]ethanone]: in the data set on AbTYR, the IC50 was 3800 nM and the mode of inhibition result is given as “noncompetitive”.

Turning to `COc1cc2[nH]cc(C(=O)CCN3CCC(Cc4ccc(F)cc4)CC3)c2cc1OC` [Compound 4, 1‐(5,6‐dimethoxy‐1H‐indol‐3‐yl)‐3‐(4‐(4‐fluorobenzyl)piperidin‐1‐yl)propan‐1‐one], in the data set with AbTYR, the IC50 is 7560 nM and the mode of inhibition result is “mixed‐type”.

For `O=C(c1ccc([N+](=O)[O-])cc1[N+](=O)[O-])N1CCN(Cc2ccc(F)cc2)CC1` [Compound 5 c, [4‐(4‐fluorobenzyl)piperazin‐1‐yl](2,4‐dinitrophenyl)methanone], the “mode of inhibition of diphenolase activity” value in data set [1] is “competitive inhibitor”.

As for `O=C(Cc1ccccc1Cl)N1CCN(Cc2ccc(F)cc2)CC1` [Compound 10, 1‐[4‐(4‐Fluorobenzyl)piperazin‐1‐yl]‐2‐(2‐chlorophenyl)ethan‐1‐one], the melting point is 100 to 102 °C.

For `O=C(Cc1ccc(Cl)cc1)N1CCN(Cc2ccc(F)cc2)CC1` [Compound 12, 1‐[4‐(4‐Fluorobenzyl)piperazin‐1‐yl]‐2‐(4‐chlorophenyl)ethan‐1‐one], the melting point lay in the range of 120 to 122 °C.

As to `O=C(Cc1cccc(Br)c1)N1CCN(Cc2ccc(F)cc2)CC1` [Compound 14, 1‐[4‐(4‐Fluorobenzyl)piperazin‐1‐yl]‐2‐(3‐bromophenyl)ethan‐1‐one], the melting point is 240 to 242 °C.

The molecule `O=C(Cc1ccccc1[N+](=O)[O-])N1CCN(Cc2ccc(F)cc2)CC1` [Compound 16, 1‐[4‐(4‐Fluorobenzyl)piperazin‐1‐yl]‐2‐(2‐nitrophenyl)ethan‐1‐one] yielded a melting point of 88 to 90 °C.

With `O=C(Cc1cccc([N+](=O)[O-])c1)N1CCN(Cc2ccc(F)cc2)CC1` [Compound 17, 1‐[4‐(4‐Fluorobenzyl)piperazin‐1‐yl]‐2‐(3‐nitrophenyl)ethan‐1‐one], the melting point was in the range of 83 to 84 °C.

As to `O=C(Cc1ccc([N+](=O)[O-])cc1)N1CCN(Cc2ccc(F)cc2)CC1` [Compound 18, 1‐[4‐(4‐Fluorobenzyl)piperazin‐1‐yl]‐2‐(4‐nitrophenyl)ethan‐1‐one], the melting point is 98 to 100 °C.

On to `COc1ccc(CC(=O)N2CCN(Cc3ccc(F)cc3)CC2)cc1` [Compound 19, 1‐[4‐(4‐Fluorobenzyl)piperazin‐1‐yl]‐2‐(4‐methoxyphenyl)ethan‐1‐one], for which the melting point was 234 to 238 °C.

Turning to `O=C(c1cccc(F)c1C(F)(F)F)N1CCN(Cc2ccc(F)cc2)CC1` [Compound 23, 1‐[4‐(4‐Fluorobenzyl)piperazin‐1‐yl]‐[3‐fluoro‐2‐(trifluoromethyl)phenyl]methanone], the cytotoxic effect entry in the data set on B16F10 cells is “no cytotoxic effect; also recorded: no cytotoxicity”. In data set [2], this molecule came in with a viability at 48 h, 100 µM above 90%. For the same molecule, in data set [3], the “mode of inhibition of diphenolase activity” value is “competitive inhibitors”.

`O=C(c1cc(F)ccc1C(F)(F)F)N1CCN(Cc2ccc(F)cc2)CC1` [Compound 25, 1‐[4‐(4‐Fluorobenzyl)piperazin‐1‐yl]‐[5‐fluoro‐2‐(trifluoromethyl)phenyl]methanone]: the cytotoxic effect result in the data set with B16F10 cells is “no cytotoxic effect; also recorded: no cytotoxicity”. For the same molecule, the viability at 48 h, 100 µM in data set [2] was above 90%. Moreover, in data set [3], the “mode of inhibition of diphenolase activity” value is “competitive inhibitors”.

As to `O=C(c1cccc(Cl)c1[N+](=O)[O-])N1CCN(Cc2ccc(F)cc2)CC1` [Compound 26, 1‐[4‐(4‐Fluorobenzyl)piperazin‐1‐yl]‐(3‐chloro‐2‐nitro‐phenyl)methanone], the melting point lay in the range of 91 to 92 °C. Moreover, in the data set with B16F10 cells, the cytotoxic effect result was “absence of cytotoxicity; also recorded: no cytotoxic effect; also recorded: no cytotoxicity”. In data set [2], the viability at 48 h, 100 µM was above 90%. For the same molecule, in data set [3], the “mode of inhibition of diphenolase activity” value is “competitive inhibitors”. Further, the antimelanogenic effect result in data set [4] (B16F10 cells) is “exerted antimelanogenic effect; also recorded: displayed antimelanogenic effects”. The “tyrosinase activity in cellular model (L‐DOPA staining)” value in data set [4] (lysates of α‐MSH-treated B16F10 cells, compound 0–100 μM, 48 h) is recorded as “decreased in a dose‐response manner”.

Molecule `O=C(c1ccc(Cl)cc1[N+](=O)[O-])N1CCN(Cc2ccc(F)cc2)CC1` [Compound 27, 1‐[4‐(4‐Fluorobenzyl)piperazin‐1‐yl]‐(4‐chloro‐2‐nitro‐phenyl)methanone] displayed a melting point of 141 to 142 °C.

With `O=C(c1cc(Cl)ccc1[N+](=O)[O-])N1CCN(Cc2ccc(F)cc2)CC1` [Compound 28, 1‐[4‐(4‐Fluorobenzyl)piperazin‐1‐yl]‐(5‐chloro‐2‐nitro‐phenyl)methanone], the melting point was 130 to 131 °C.

`COc1ccc(C(=O)N2CCN(Cc3ccc(F)cc3)CC2)c([N+](=O)[O-])c1` [Compound 31, 1‐[4‐(4‐Fluorobenzyl)piperazin‐1‐yl]‐(4‐methoxy‐2‐nitro‐phenyl)methanone]: the melting point was in the range of 133 to 134 °C.

For the molecule `COc1ccc([N+](=O)[O-])c(C(=O)N2CCN(Cc3ccc(F)cc3)CC2)c1` [Compound 32, 1‐[4‐(4‐Fluorobenzyl)piperazin‐1‐yl]‐(5‐methoxy‐2‐nitro‐phenyl)methanone], the melting point lay within 151 to 152 °C.

For the molecule `O=c1cc(CO)occ1O` [KA, 5‐hydroxy‐2‐(hydroxymethyl)‐4H‐pyran‐4‐one], the mode of inhibition entry with AbTYR (classification from literature) is recorded as “competitive”.
